Marks after values point to notes of the source that are not given here.

Here are results for 1 compound from US20190255022A1, “WOUND-HEALING AGENT” (NIPPON CHEMIPHAR CO., LTD., priority 2016, published 2019).

This assay deals with wound in diabetes mouse (db/db mouse) model. The assay can be described thus: Effect of compound A on wound in diabetes mouse (db/db mouse) model. It counts as in vivo. To be noted: for wound area ratio: 0.05 mL once a day, mean±standard error, n=8. As for the experimental part: The compound A was weighed in the required amount, and polyethylene glycol 400 (PEG400) was added to the compound to prepare liquids having final concentrations of the compound of 0.001, 0.01, and 0.1 w/v %. In order to prepare ointments having final concentrations of the compound of 0.0005, 0.005, and 0.05 w/w %, PEG4000 melted by warming at 65° C. was added to the liquids, and the liquids were stirred until they solidified at room temperature to prepare ointments having concentrations of the compound of 0.0005, 0.005, and 0.05 w/w %.
Diabetes mice (db/db mice) were anesthetized with isoflurane, and a 1.5-cm square of skin including the back median line as the center axis of each mouse was removed with ophthalmic scissors. A polyurethane film was stuck so as to cover the skin-lacking wound part and surrounding parts to prepare the wound.
The administration was performed once a day at a volume of 0.05 mL. As for the administration method, the administration was performed with a disposable polypropylene injection syringe attached to a 23G needle by inserting the needle into a gap between the wound and the polyurethane film covering the wound part. On the day when the wound was produced and the days when the wound area was measured, the compound was administered to the wound part by using a disposable polypropylene injection syringe attached to a 23G needle before sticking the polyurethane film.
On days 14 to 20 of the administration (the day on which the administration was started is day 1 of the administration), the administration was performed by peeling off the polyurethane film under isoflurane anesthesia, cleaning the wound with absorbent cotton containing physiological saline, administering the ointment with a disposable polypropylene injection syringe, and then the polyurethane film was stuck on again.
On days 1, 4, 8, 12, 16, and 21 of the administration, the wound part was traced. That is, after the polyurethane film was removed (in the case of the day 1 of the administration, before the administration and sticking of the film), a plastic sheet was placed on the wound part, the contour of the wound part was traced on the plastic sheet (tracing was performed by using a felt pen so that the external periphery of the wound part would coincide with the internal periphery of the line drawn with the felt pen), and a copy of the sheet on which tracing was performed was used as the source of raw data. The area of the inside of the traced line (mm^2) was measured once using an area-line meter (PLANIX EX, Tamaya Technics Inc.) on the copy of the sheet on which tracing was performed. The results are expressed as ratio of change (%) calculated from the wound area (mm^2) of each measurement day, and the wound area (mm^2) of the day 1 of the wound creation (before administration).
Significant difference test was performed by using a commercial statistical analysis program (SAS System, SAS Institute Japan, Inc.). Statistical significance levels lower than 5% were considered to be significant, and the results are indicated as those of the level lower than 5% (*; p<0.05) and those of the level lower than 1% (**; p<0.01).
As for the test method, the multiple comparison of Dunnett's method was used for the comparison between the vehicle-administered group and compound A-administered groups.

Take `Cc1cc2c(CCc3sc(-c4ccc(C(F)(F)F)cc4)nc3C(C)C)noc2cc1OCC(=O)O` [compound A, [3-[2-[4-isopropyl-2-(4-trifluoromethyl)phenyl-5-thiazolyl]ethyl]-5-methyl-1,2-benzisoxazol-6-yl]oxyacetic acid]: the wound area ratio (0.0005% compound A ointment, day 1 of administration) was 100.0 ± 0.0%; the wound area ratio (0.0005% compound A ointment, day 4 of administration) came to 96.9 ± 1.7%; the wound area ratio (0.0005% compound A ointment, day 8 of administration) amounted to 95.2 ± 2.4%; the wound area ratio (0.0005% compound A ointment, day 12 of administration) stood at 82.9 ± 2.7%; the wound area ratio (0.0005% compound A ointment, day 16 of administration) came out at 73.4 ± 2.7%; the wound area ratio (0.0005% compound A ointment, day 21 of administration) amounted to 67.6 ± 3.8%. Moreover, the wound area ratio runs as follows: (0.005% compound A ointment, day 1 of administration) 100.0 ± 0.0%; (0.005% compound A ointment, day 4 of administration) 97.2 ± 2.4%; (0.005% compound A ointment, day 8 of administration) 95.0 ± 2.2%; (0.005% compound A ointment, day 12 of administration) 84.1 ± 1.6%; (0.005% compound A ointment, day 16 of administration) 72.1 ± 1.7%; (0.005% compound A ointment, day 21 of administration) 69.1 ± 3.0%. Moreover, the wound area ratio by setting is: (0.05% compound A ointment, day 1 of administration) 100.0 ± 0.0%; (0.05% compound A ointment, day 4 of administration) 96.0 ± 2.1%; (0.05% compound A ointment, day 8 of administration) 90.3 ± 2.6* %; (0.05% compound A ointment, day 12 of administration) 78.6 ± 1.6** %; (0.05% compound A ointment, day 16 of administration) 69.2 ± 2.1%; (0.05% compound A ointment, day 21 of administration) 65.5 ± 2.1%. The “wound area compared with the vehicle-administered group” value (0.05% compound A-administered group, day 8 and day 12 of the administration) is recorded as “significantly smaller”.
